Publication PMC5706900, “Distinct mobilization of leukocytes and hematopoietic stem cells by CXCR4 peptide antagonist LY2510924 and monoclonal antibody LY2624587” (Oncotarget, 2017)
Positions of bridges follow the written chain, without caps; N, C: chain ends. Non-standard residues stand in square brackets, D forms with d. Residues, ends and D or L forms follow the SMILES beside them. 2Nal = N[C@@H](Cc1ccc2ccccc2c1)C(=O)O; Lys(iPr) = CC(C)NCCCC[C@H](N)C(=O)O

Legend:
hematologic malignancies = settings: ref [11], [39]; cited from earlier work
Source text: (§1) These distinct in vitro properties may be related to the differential mobilization of WBCs and HSCs in vivo, but the mechanism is not yet understood and these differences cannot fully explain why LY2624587 antibody induced only minimal changes in WBCs and HSCs in monkeys and humans. […] Weak immune cell mobilization by LY2624587 antibody may be a class phenomenon of mAb agents. Ano ...

[1] = system: patients with multiple myeloma, peripheral leukocytes; settings: ref [41]; cited from earlier work
Source text: as §1

[2] = system: patients with chronic lymphocytic leukemia, normal lymphocytes; settings: ref [40]; cited from earlier work
Source text: as §1

human CXCR4 = target: T1, human CXCR4 (Homo sapiens, UniProt P61073); test: SDF-1/CXCR4 binding assay, [125I]-SDF-1α, human leukemia CCRF-CEM cells
T1 construct: human leukemia CCRF-CEM cells that express endogenous CXCR4; endogenous in cells; host or cells: CCRF-CEM human leukemia cells
Method: (§2) Preclinical characterization of both agents was previously described. Interaction of SDF-1/CXCR4 was assayed in human leukemia CCRF-CEM cells expressing high levels of human CXCR4, MDA-MB-435 cells stably transfected with monkey CXCR4, and mouse 2PK-3 lymphoma cells expressing high levels of mouse CXCR4.
(§3) Figure 1 LY2510924 peptide and LY2624587 antibody inhibition of SDF-1/CXCR4 binding in human, monkey, and mouse cells LY2510924 (peptide antagonist) inhibits binding in (A) human, (B) monkey, and (C) mouse cells. LY2624587 (CXCR4 mAb) inhibits binding in (D) human, (E) monkey, and (F) mouse cells. Human cells = leukemia CCRF-CEM cells with high-level expression of human CXCR4, monkey cells = MDA-MB-435 cells stably transfected with monkey CXCR4, and mouse cells = 2PK-3 lymphoma cells with high-level expression of mouse CXCR4. Ki = inhibitor constant.
(§4) The SDF-1/CXCR4 binding assay used human leukemia CCRF-CEM cells that express endogenous CXCR4 and [125I]-labeled recombinant human SDF-1α (PeproTech EC Ltd., London, UK) as previously described. The same assay was conducted for breast cancer MDA-MB-435 cells transfected with monkey CXCR4 and mouse lymphoma 2PK-3 cells that express endogenous mouse CXCR4. Plates were counted in a 1450 Microbeta Liquid Scintillation and Luminescence Counter (Wallac) in SPA mode.

monkey CXCR4 = target: T2, monkey CXCR4 (Macaca fascicularis, UniProt Q28474); test: SDF-1/CXCR4 binding assay, MDA-MB-435 cells transfected with monkey CXCR4; settings: MDA-MB-435 cells stably transfected with monkey CXCR4; SPA mode; read-out: IC50, inhibition of SDF-1 binding
T2 construct: expressed in transfected cells; host or cells: MDA-MB-435 cells
Method: as §2, §3, §4

mouse CXCR4 = target: T3, mouse CXCR4 (Mus musculus, UniProt P70658); test: SDF-1/CXCR4 binding assay, mouse lymphoma 2PK-3 cells
T3 construct: mouse lymphoma 2PK-3 cells that express endogenous mouse CXCR4; endogenous in cells; host or cells: 2PK-3 mouse lymphoma cells
Method: as §2, §3, §4

[3] = 1- to 30-mg/day, patients with advanced cancer; ref [9]; cited from earlier work
Source text: We developed LY2624587, a fully humanized CXCR4 mAb that is among the first-in-class anti-CXCR4 mAbs developed, for the treatment of patients with cancer. […] A role for LY2624587 antibody in mobilizing HSCs and WBCs has not been previously reported. We also developed LY25 ...

ovarian cancer models = settings: ref [32]; cited from earlier work
Source text: (§5) Due to the critical role of SDF-1/CXCR4 interaction in immune cell retention and mobilization, CXCR4 inhibition may lead to T-cell infiltration and redistribution in tumor microenvironments.

hepatic carcinoma models = settings: ref [30]; cited from earlier work
Source text: as §5

pancreatic cancer = settings: mice with pancreatic cancer; ref [7]; cited from earlier work
Source text: as §5

leukocytes and HSCs = settings: ref [12], [20], [24]; cited from earlier work
Source text: In addition to tumor microenvironments, SDF-1 is constitutively expressed at high levels in bone marrow and is an efficient chemotactic factor for immune cells including T-cells, B-cells, and monocytes. […] There are two major mechanisms involved in this function: down-regulation of cell surface CXCR4 by internalization or proteolysis, and antagonism via direct blockade of SDF-1/CXCR4 interaction.

[4] = ref [43]; cited from earlier work
WBC count = settings: ref [43], cited from earlier work

T3 sequence (P70658 whole entry): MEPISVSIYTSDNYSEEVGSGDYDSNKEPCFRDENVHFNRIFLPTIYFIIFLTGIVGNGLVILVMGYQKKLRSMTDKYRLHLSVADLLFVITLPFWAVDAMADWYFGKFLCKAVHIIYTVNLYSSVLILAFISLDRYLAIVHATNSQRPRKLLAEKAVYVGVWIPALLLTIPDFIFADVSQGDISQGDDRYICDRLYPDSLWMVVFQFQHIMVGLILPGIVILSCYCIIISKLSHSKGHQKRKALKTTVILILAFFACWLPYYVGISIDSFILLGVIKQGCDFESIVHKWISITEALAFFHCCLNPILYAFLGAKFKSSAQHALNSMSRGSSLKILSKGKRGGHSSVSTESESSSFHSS
T1 sequence (P61073 whole entry): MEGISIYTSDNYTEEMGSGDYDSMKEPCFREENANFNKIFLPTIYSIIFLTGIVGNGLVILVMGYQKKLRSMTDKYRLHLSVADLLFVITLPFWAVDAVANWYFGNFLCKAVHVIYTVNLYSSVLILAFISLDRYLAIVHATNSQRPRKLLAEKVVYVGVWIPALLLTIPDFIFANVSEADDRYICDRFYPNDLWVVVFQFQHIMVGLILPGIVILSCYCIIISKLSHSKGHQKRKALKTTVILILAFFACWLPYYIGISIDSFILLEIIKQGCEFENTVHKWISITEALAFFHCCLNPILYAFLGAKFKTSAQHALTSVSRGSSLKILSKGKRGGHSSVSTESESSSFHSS
T2 sequence (Q28474 whole entry): as the sequence (P61073 whole entry) above, with M24I, N35H, K38R, R146K, N176S counted along it

BMS-936564/MDX-1338: CXCR4-specific mAb in clinical development
antitumor and pro-apoptotic functionality (hematologic malignancies): antitumor and pro-apoptotic functionality
duration of leukocyte increase [1]: transient
increase in peripheral leukocytes (median) [1]: 2 fold
increase in absolute number of normal lymphocytes [2]: no evidence of increase

CC(C)NCCCC[C@H](NC(=O)[C@H]1CCC(=O)N[C@@H](Cc2ccccc2)C(=O)N[C@@H](Cc2ccc(O)cc2)C(=O)N[C@@H](CCCCNC(C)C)C(=O)N[C@H](CCCNC(=N)N)C(=O)N[C@@H](Cc2ccc3ccccc3c2)C(=O)NCC(=O)N1)C(N)=O [LY2510924] (FY[Lys(iPr)][dR][2Nal]G[dE][Lys(iPr)]-NH2; lactam N-7)
Ki (human CXCR4): 49.5 pM
IC50 (human CXCR4; human leukemia CCRF-CEM cells, [125I]-labeled human SDF-1α, SPA mode, read-out: IC50, inhibition of SDF-1 binding): 79.7 pM
IC50 (monkey CXCR4): 97 pM
IC50 difference, mouse versus human cells (mouse CXCR4; mouse 2PK-3 vs human CCRF-CEM): 35 fold
IC50 difference, mouse versus monkey cells (mouse CXCR4; mouse 2PK-3 vs monkey CXCR4 MDA-MB-435): 29 fold
IC50 (mouse CXCR4; mouse lymphoma 2PK-3 cells, SPA mode, read-out: IC50, inhibition of SDF-1 binding): 2830 pM
pharmacokinetic and safety profiles [3]: favorable pharmacokinetic and safety profiles

c1cc(CN2CCCNCCNCCCNCC2)ccc1CN1CCCNCCNCCCNCC1 [AMD3100]
effect on intra-tumor regulatory T-cells (ovarian cancer models): selective reduction of intra-tumor regulatory T-cells
effect on tumor apoptosis (ovarian cancer models): increased tumor apoptosis
combination with anti–PD-1 (hepatic carcinoma models): augmented anti–PD-1 combination therapy efficacy
T-cell accumulation near tumors (pancreatic cancer): rapid T-cell accumulation near tumors
combination with anti–PD-L1 mAb, tumor cell elimination (pancreatic cancer): synergistic with an anti–PD-L1 mAb to eliminate tumor cells
mobilization of WBCs including neutrophils and HSCs (leukocytes and HSCs): mobilize both white blood cells (WBCs) including neutrophils and HSCs
safety on chronic dosing schedule [4]: poses significant safety concerns due to compound-associated toxicity
duration of single dose effect (WBC count): appeared to last only a few hours
WBC count at 24 hours (WBC count; single dose, 24 hours): reduced to near baseline level at 24 hours
